Measurements taken from paper PMC4015918, “Conjugation to a SMAC mimetic potentiates sigma-2 ligand induced tumor cell death in ovarian cancer” (Molecular Cancer, 2014).

Assays:
Type in all cases: cell-based
[1] = test system: Hey A8 cells; assay: Caspase-Glo caspase 3, 8 and 9 activity in Hey A8 cells; conditions: 24 hours
Description: Caspase 3, 8 and 9 activities were measured using Caspase-Glo® Assay Systems according to the manufacturer’s instructions (Promega, Madison, WI). Briefly, the assay systems are based on caspase-specific substrates, which are activated by cleavage, resulting in caspase specific luminescence signals. HeyA8 cells were plated at a density of 1 × 10^4 in white 96 well, clear bottom plates for 24 hours before treatment. Cells were treated with different concentrations of SW IV-134. Caspase 3, 8 and 9 assays were performed by adding 100 μl of caspase reagents to each well. The contents were mixed using a plate shaker for 30 seconds and incubated at room temperature for 90 minutes. Luminescence signal was measured using a multi-mode microplate reader (BioTek, Winooski, VT).
Supplementary file 1476-4598-13-50-S3.pdf: Additional file 3: Figure S2 SW IV-134 induces caspase activation in ovarian cancer. Caspase 3, 8 and 9 activities were measured in Hey A8 cells using Caspase-Glo® Assay Systems (Promega). Hey A8 cells were treated with SW IV-134 at indicated drug concentrations for 24 hours. Caspase assays were performed by adding 100 μl lysis buffer containing the substrates for the respective caspase to be assayed. Luminescence signal intensities were recorded using a multi-mode microplate reader (BioTek). […] (A) caspase 8; (B) caspase 9; and (C) caspase 3. p < 0.001 for all analyses, one-way ANOVA. […]

[2] = test system: TNFα mRNA; assay: Quantitative RT-PCR of TNFα mRNA; conditions: SKOV3 cells, 1 μM and 3 μM, 4-24 hours, normalized to GAPDH; maximal at 24 hours
Description: Figure 5 SW IV-134 induces activation of the TNFα-dependent extrinsic death pathway. (A) Quantitative real-time PCR analysis of TNFα mRNA expression was done on RNA samples derived from SKOV3 cells treated with SW IV-134 (1 μM and 3 μM) for indicated time periods. All values were normalized to a GAPDH internal control (p < 0.0001, one-way ANOVA). (B) SKOV3 cells were treated with SW IV-134 (1 μM and 3 μM) and cell-culture supernatants were collected at 4, 12, and 24 hours after treatment, and subsequently examined by anti-TNFα ELISA according to manufacturer’s instructions (p < 0.0001, one-way ANOVA). (C) SKOV3 cells were treated with SW IV-134 at indicated doses either alone or in the presence of anti-TNFα blocking antibody for 18 hours. Cell viability was determined as described in the experimental methods (p < 0.019, Student’s t-test).
SKOV3 cells were treated with SW IV-134 (1 μM, 3 μM) or vehicle-control for 4 hours, 12 hours, and 24 hours. At the end of each treatment, cells were harvested and total RNA was isolated using TRIzol reagent (Invitrogen, Grand Island, NY) and RT-PCR performed as per the protocol described before. Briefly, one microgram of RNA from each sample was reverse transcribed to cDNA with Retroscript (Ambion, Austin, TX). […] TNFα data were normalized for expression with GAPDH, and results were expressed as fold change over untreated controls.

[3] = test system: SKOV3 cells; assay: Annexin V binding (apoptosis), flow cytometry; conditions: SKOV3 cells, 3, 6 and 10 μM, 16 hours
Description: SKOV3 cells were treated with different concentrations of SW IV-134 (3 μM, 6 μM, and 10 μM) for 16 hours. Staining was performed using the Annexin V Apoptosis Detection Kit (BioLegend, San Diego, CA) according to the manufacturer’s instructions. The apoptosis rate was determined by flow cytometry (FACSCalibur, BD Biosciences, San Jose, CA).
Supplementary file 1476-4598-13-50-S4.pdf: Additional file 4: Figure S3 Flow cytometric determination of apoptosis. SKOV3 cells were treated with increasing concentrations of SW IV-134. Untreated cells served as a negative staining control. The cells were then assessed for apoptosis induction by flow cytometry following staining with propidium iodide/Annexin V. Click here for file

[4] = test system: NF-қB (p65); assay: Western blot for phosphorylation of NF-қB (p65); conditions: SKOV3 cells, 10 μM, 4 hours
Description: Figure 4 SW IV-134 engages in SMAC-dependent pathway activation. (A) SKOV3 cells were treated with vehicle only (Ctrl.), SW43 (10 μM), and SW IV-134 (10 μM) for 4 hours and cell lysates were subjected to Western blot analysis using antibodies against XIAP, cIAP-1, cIAP-2, NF-қB and NIK. While XIAP seems unaffected under the conditions used, cIAP-1 and cIAP-2 proteins are readily undetectable shortly post treatment. SW IV-134 treatment also leads to accumulation of NF-қB inducing kinase (NIK) and activation of NF-қB pathway. (B) SKOV3 cells were treated with SW IV-134 at the indicated doses either alone or in the presence of proteasome inhibitor MG132 (20 μM) for 18 hours. […] Cell viability was determined as described in the experimental methods (p < 0.011, Student’s t-test).
Cells were lysed in radioimmunoprecipitation assay buffer [50 mM Tris, 150 mM sodium chloride, 1.0 mM EDTA, 1% Nonidet P40, and 0.25% SDS (pH 7.0)], supplemented with complete protease inhibitor cocktail (Roche, Mannheim) and phosphatase inhibitor cocktail 1 (Sigma Chemical Co., St. Louis, MO). The protein concentration was determined using a BioRad Dc protein assay kit (Bio-Rad Laboratories, Hercules, CA). Lysates containing 30 μg of protein were run on a 12% polyacrylamide gel and transferred to a PVDF membrane (Bio-Rad Laboratories, Hercules, CA). […]

## COc1ccc(C)cc1NC(=O)OC1CC2CCCC(C1)N2CCCCCCCCCCN[C@@H](C)C(=O)N[C@H](C(=O)N1CCC[C@H]1C(=O)N[C@@H]1CCCc2ccccc21)C(C)(C)C (stereo partly shown) [SW IV-134]
[1]
  Caspase 3, 8 and 9 activities (fold over DMSO control): significant increases in caspase activities
[2]
  Increase in TNFα mRNA levels compared to untreated cells: 20-50 fold
[3]
  Annexin V binding: increased Annexin V binding relative to the untreated control cells in a dose dependent manner
[4]
  Activation (phosphorylation) of NF-қB (p65): activation (phosphorylation) of NF-қB (p65)
